pIC50: −log10 of the molar value. Where two headings read alike, the source gives them in different places.
Biological target: Human Factor D (Homo sapiens (Human), UniProt P00746)
Experiment: Human Factor D Assay
Type: biochemical
Conditions: Factor D purified from human serum, 80 nM, substrate Z-L-Lys-SBzl
In short: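 Serum-purified human Factor D (80 nM final) preincubated with compound for 5 min at room temperature in 50 mM Tris, 1 M NaCl, pH 7.5. Z-L-Lys-SBzl and DTNB added at 100 μM each; A405 read every 30 s for 30 min. IC50 by nonlinear regression of reaction rates.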

[1] = Table 3, read-out: IC50 (Stars)

Chain of Human Factor D (P00746 26-253): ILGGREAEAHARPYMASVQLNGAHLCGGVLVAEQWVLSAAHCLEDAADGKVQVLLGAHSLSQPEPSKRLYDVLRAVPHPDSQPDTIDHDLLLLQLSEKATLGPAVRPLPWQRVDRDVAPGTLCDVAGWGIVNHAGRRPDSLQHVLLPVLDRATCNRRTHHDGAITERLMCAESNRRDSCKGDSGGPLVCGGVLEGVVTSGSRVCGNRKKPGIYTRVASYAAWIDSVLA

SMILES | pIC50 [1] | other results
CC(=O)c1cn(CC(=O)N2C[C@H](F)C[C@H]2C(=O)Nc2nccc(Cl)n2)c2ccc(Nc3cncnc3)cc12 [Compound 73, (2S,4R)-1-(2-(3-acetyl-5-(pyrimidin-5-ylamino)-1H-indol-1-yl)acetyl)-N-(4-chloropyrimidin-2-yl)-4-fluoropyrrolidine-2-carboxamide] | – | pIC50 (Table 1, read-out: IC50): > 6.00
CC(=O)c1cn(CC(=O)N2C[C@H](F)C[C@H]2C(=O)N[C@H](C)c2oc3ccc(F)cc3c2C)c2ccc(Nc3cncnc3)cc12 [Compound 74, (2S,4R)-1-(2-(3-acetyl-5-(pyrimidin-5-ylamino)-1H-indol-1-yl)acetyl)-4-fluoro-N-((R)-1-(5-fluoro-3-methyl-benzofuran-2-yl)ethyl) pyrrolidine-2-carboxamide] | – | pIC50 (Table 1, read-out: IC50): < 5.00
CC(=O)c1cn(CC(=O)N2C[C@H](F)C[C@H]2C(=O)N[C@@H](C)c2oc3ccc(F)cc3c2C)c2ccc(Nc3cncnc3)cc12 [Compound 75, (2S,4R)-1-(2-(3-acetyl-5-(pyrimidin-5-ylamino)-1H-indol-1-yl)acetyl)-4-fluoro-N-((S)-1-(5-fluoro-3-methylbenzofuran-2-yl)ethyl) pyrrolidine-2-carboxamide] | – | pIC50 (Table 1, read-out: IC50): > 6.00
COCCOc1ncc(Nc2ccc3c(c2)c(C(C)=O)cn3CC(=O)N2C[C@H](F)C[C@H]2C(=O)Nc2cccc(Br)n2)cn1 [Compound 76, (2S,4R)-1-(2-(3-acetyl-5-(2-(2-methoxyethoxy)pyrimidin-5-ylamino)-1H-indol-1-yl)acetyl)-N-(6-bromopyridin-2-yl)-4-fluoropyrrolidine-2-carboxamide] | – | pIC50 (Table 2, read-out: IC50): > 6.00
CC(=O)c1cn(CC(=O)N2C[C@H](F)C[C@H]2C(=O)NCc2ccccc2)c2ccc(Nc3cccnc3)cc12 [Compound 146, (2S,4R)-1-(2-(3-acetyl-5-(pyridin-3-ylamino)-1H-indol-1-yl)acetyl)-N-benzyl-4-fluoropyrrolidine-2-carboxamide] | > 6.00 | –
CC(=O)c1cn(CC(=O)N2C[C@H](F)C[C@H]2C(=O)NCCc2ccccc2)c2ccc(Nc3cccnc3)cc12 [Compound 148, (2S,4R)-1-(2-(3-acetyl-5-(pyridin-3-ylamino)-1H-indol-1-yl)acetyl)-4-fluoro-N-phenethylpyrrolidin-2-carboxamide] | > 6.00 | –
CC(=O)c1cn(CC(=O)N2C[C@H](F)C[C@H]2C(=O)NCCCc2ccccc2)c2ccc(Nc3cccnc3)cc12 [Compound 150, (2S,4R)-1-(2-(3-acetyl-5-(pyridin-3-ylamino)-1H-indol-1-yl)acetyl)-4-fluoro-N-(3-phenylpropyl) pyrrolidine-2-carboxamide] | > 6.00 | –
CC(=O)c1cn(CC(=O)N2C[C@H](F)C[C@H]2C(=O)NCCCCc2ccccc2)c2ccc(Nc3cccnc3)cc12 [Compound 152, (2S,4R)-1-(2-(3-acetyl-5-(pyridin-3-ylamino)-1H-indol-1-yl)acetyl)-4-fluoro-N-(4-phenylbutyl) pyrrolidine-2-carboxamide] | > 6.00 | –
CC(=O)c1cn(CC(=O)N2C[C@H](F)C[C@H]2C(=O)NCc2ccccc2)c2ccc(Nc3cncnc3)cc12 [Compound 153, (2S,4R)-1-(2-(3-acetyl-5-(pyrimidin-5-ylamino)-1H-indol-1-yl)acetyl)-N-benzyl-4-fluoropyrrolidine-2-carboxamide] | > 6.00 | –
CC(=O)c1cn(CC(=O)N2C[C@H](F)C[C@H]2C(=O)NCCc2ccccc2)c2ccc(Nc3cncnc3)cc12 [Compound 154, (2S,4R)-1-(2-(3-acetyl-5-(pyrimidin-5-ylamino)-1H-indol-1-yl)acetyl)-4-fluoro-N-phenethylpyrrolidin-2-carboxamide] | > 6.00 | –
CC(=O)c1cn(CC(=O)N2C[C@H](F)C[C@H]2C(=O)NCCCc2ccccc2)c2ccc(Nc3cncnc3)cc12 [Compound 155, (2S,4R)-1-(2-(3-acetyl-5-(pyrimidin-5-ylamino)-1H-indol-1-yl)acetyl)-4-fluoro-N-(3-phenylpropyl) pyrrolidine-2-carboxamide] | > 6.00 | –
CC(=O)c1cn(CC(=O)N2C[C@H](F)C[C@H]2C(=O)NCCCCc2ccccc2)c2ccc(Nc3cncnc3)cc12 [Compound 156, (2S,4R)-1-(2-(3-acetyl-5-(pyrimidin-5-ylamino)-1H-indol-1-yl)acetyl)-4-fluoro-N-(4-phenylbutyl) pyrrolidine-2-carboxamide] | > 6.00 | –
CC(=O)c1cn(CC(=O)N2CC[C@H]2C(=O)Nc2cccc(C)n2)c2ccc(Nc3cccnc3)cc12 [Compound 159, (S)-1-(2-(3-acetyl-5-(pyridin-3-ylamino)-1H-indol-1-yl)acetyl)-N-(6-methylpyridin-2-yl)azetidine-2-carboxamide] | < 5.00 | –
CC(=O)c1cn(CC(=O)N2CC[C@H]2C(=O)Nc2cccc(C)n2)c2ccc(Nc3cncnc3)cc12 [Compound 160, (S)-1-(2-(3-acetyl-5-(pyrimidin-5-ylamino)-1H-indol-1-yl)acetyl)-N-(6-methylpyridin-2-yl)azetidine-2-carboxamide] | < 5.00 | –
Cc1cccc(NC(=O)[C@@H]2[C@@H]3CCC(C3)N2C(=O)Cn2cc(C(N)=O)c3cc(Nc4ccc(Cl)nn4)ccc32)n1 [Compound 162, 5-((6-chloropyridazin-3-yl)amino)-1-(2-((3S,4R)-3-((6-methylpyridin-2-yl)carbamoyl)-2-azabicyclo[2.2.1]heptan-2-yl)-2-oxoethyl)-1H-indole-3-carboxamide] | > 6.00 | –
CC(=O)c1nn(CC(=O)N2C[C@H](F)C[C@H]2C(=O)Nc2cccc(Br)n2)c2ccc(Nc3cnc(C)nc3)cc12 [Compound 163, (2S,4R)-1-(2-(3-acetyl-5-((2-methylpyrimidin-5-yl)amino)-1H-indazol-1-yl)acetyl)-N-(6-bromopyridin-2-yl)-4-fluoropyrrolidine-2-carboxamide] | > 6.00 | –
CC(=O)c1nn(CC(=O)N2C[C@H](F)C[C@H]2C(=O)Nc2cccc(Br)n2)c2ccc(Nc3cncc(F)c3)cc12 [Compound 164, (2S,4R)-1-(2-(3-acetyl-5-((5-yl)amino)-1H-indazol-1-yl)acetyl)-N-(6-bromopyridin-2-yl)-4-fluoropyrrolidine-2-carboxamide] | > 6.00 | –
CC(=O)c1nn(CC(=O)N2[C@H](C(=O)Nc3nc(Br)ccc3C)C[C@@]3(C)C[C@@H]23)c2ccc(Nc3cncc(F)c3)cc12 [Compound 165, (1R,3S,5R)-2-(2-(3-acetyl-5-((5-fluoropyridin-3-yl)amino)-1H-indazol-1-yl)acetyl)-N-(6-bromo-3-methylpyridin-2-yl)-5-methyl-2-azabicyclo[3.1.0] hexane-3-carboxamide] | > 6.00 | –

— patent publication US10660876B2, “Amino compounds for treatment of medical disorders” (Achillion Pharmaceuticals, Inc., priority 2015, dated 2020)
